Results as given in paper PMC7397249, “Properly Substituted Cyclic Bis-(2-bromobenzylidene) Compounds Behaved as Dual p300/CARM1 Inhibitors and Induced Apoptosis in Cancer Cells” (Molecules, 2020).

What was measured:
SIRT1 = target: T1, SIRT1 (Homo sapiens, UniProt Q96EB6); assay: Modified Fluor de Lys fluorescence-based assay, SIRT1; type: biochemical; details: from 200 μM; p53 379-382 AMC substrate, NAD+
T1 construct: host or cells: E. coli
Protocol: (§1) The newly synthesized compounds 4a–n were tested to determine their effects against acetylation and methylation epigenetic targets. First, 4a–n were screened in vitro against the two HAT enzymes p300 and PCAF. […] To determine the activity against SIRT1 and -2, 4a–n were tested starting from 200 μM solutions using a modified Fluor de Lys fluorescence-based assay with amino acids 379–382 (Arg-His-Lys-Lys(Ac)) of human p53 conjugated with aminomethylcoumarin as substrate and NAD^+ as co-substrate. […] Furthermore, 4a–n were tested against a human five-membered Polycomb repressive complex 2 (PRC2) containing EZH2, embryonic ectoderm development (EED), suppressor of zeste 12 (SUZ12), RbAp48, and adipocyte enhancer-binding protein (AEBP2), to assess their capability to inhibit the catalytic unit EZH2.
(§2) The SIRT inhibition assay was performed using human recombinant SIRT1 and SIRT2 produced in E. coli. Compounds were tested using a modified Fluor de Lys fluorescence-based assay kit based on the method described in the BioMol product sheet (AK-555, AK-556, Milan, Italy). […] The second stage is initiated by the addition of the Developer II (KI176), including nicotinamide (NAM), nicotinamide that stops the SIRT1/2 activity, and the fluorescent signal is produced. The fluorescence was measured on a fluorometric reader (Infinite 200 TECAN, Männedorf, Switzerland) with excitation set at 360 nm and emission detection set at 460 nm.

SIRT2 = target: T2, SIRT2 (Homo sapiens, UniProt Q8IXJ6); assay: Modified Fluor de Lys fluorescence-based assay, SIRT2; type: biochemical; details: from 200 μM; p53 379-382 AMC substrate, NAD+
T2 construct: host or cells: E. coli
Protocol: as §1, §2

U937 cells = assay: Cell cycle and apoptosis (sub-G1) analysis by FACS in U937 cells; type: cell-based, human; details: 5 μM, 30 h
Protocol: (§3) Compounds 4a–n were tested at 5 μM for 30 h in NB4 […] and U937 AML cells among hematological cancers, and in MCF-7 breast cancer and SH-SY5Y neuroblastoma cells among solid cancers, to determine their effects in cell cycle and apoptosis induction.
(§4) In the same cell lines, the induction of apoptosis has been evaluated through the percentage of the sub-G1 peaks.
(§5) For colorimetric exclusion, the cells (2 × 10^5 cells/mL) were plated in multiwells in triplicate. After stimulations at different times and concentrations, cells were diluted in the ratio 1:1 in Trypan Blue (Sigma) and counted with an optical microscope. For cell cycle analyses, cells were plated (2 × 10^5 cells/mL) and were harvested, centrifuged at 1200 rpm for 5 min and resuspended in 500 μL of a hypotonic solution containing 1× PBS, Sodium Citrate 0.1%, 0.1% NP-40, RNAase A and […] Propidium Iodide (PI). After 30 min at room temperature (RT) in the dark, samples were acquired by FACS-Calibur (BD Bioscences, San Jose, CA, USA) using CellQuest software (BD Biosciences). The percentage in different phases of the cell cycle was determined by ModFit LT V3 software (Verity). All experiments were performed in triplicate. Cell death was measured as percentage of cells in sub-G1 phase as in [30].

PRC2/EZH2 = PRC2/EZH2 (Homo sapiens, UniProt Q15910); assay: EZH2/PRC2 assay (core histone, 3H-SAM); type: biochemical; details: 10-dose, duplicate, from 400 μM
Protocol: as §1
The EZH2 substrate (0.05 mg/mL core histone) was added in the freshly prepared reaction buffer (50 mM Tris-HCl (pH 8.0), 50 mM NaCl, 1 mM EDTA, 1 mM DTT, 1 mM PMSF, 1% DMSO). The PRC2 complex (complex of human EZH2, human EED, human SUZ12, human AEBP2, and human RbAp48) was delivered into the substrate solution and the mixture was mixed gently. Afterwards, the tested compounds dissolved in DMSO were delivered into the enzyme/substrate reaction mixture by using Acoustic Technology (Echo 550, LabCyte Inc. Sunnyvale, CA, USA) in nanoliter range, and ^3H-SAM was added into the reaction mixture to initiate the reaction. The reaction mixture was incubated for 1 h at 30 °C and then it was delivered to filter-paper for detection. The data were analyzed using Excel and GraphPad Prism software for IC50 curve fits. The experiments were performed in duplicate.

p300 = assay: Western blot of acetylation marks (p300 inhibition) in MCF-7 cells; type: cell-based, human; details: 5 μM, 30 h
Protocol: (§6) In MCF-7 cells, the levels of acetyl-H3, acetyl-H4, H3K27me3, and H3R17me2 were detected by western blot analyses as functional tests for p300 (acH3 and acH4), EZH2 (H3K27me3) and CARM1 (H3R17me2) inhibition in cells, respectively (Figure 5).
(§7) The procedures were performed as described in [30, 31]. Primary antibodies used were: Ac-H3 (Millipore, Milan, Italy); Ac-H4 (Millipore, Milan, Italy); Ac-H3K9-14 (Diagenode, Ougrée, Belgium); Ac-α-tubulin (Sigma-Aldrich), H3K27me3 (Diagenode); H3R17me2 (Diagenode); EZH2 (Abcam, Cambridge, UK). H3 (Sigma-Aldrich), H4 (Abcam), GAPDH (Sigma) and ERKs (Santa Cruz, Biotechnology, TX, USA) were used to normalize the total protein extracts (see also Supplementary Material).

EZH2 = assay: Western blot of H3K27me3 (EZH2) in MCF-7 cells; type: cell-based, human; details: 5 μM, 30 h
Protocol: as §6, §7

SH-SY5Y cells = assay: Cell cycle and apoptosis (sub-G1) analysis by FACS in SH-SY5Y cells; type: cell-based, human; details: 5 μM, 30 h
Protocol: as §3, §4, §5

NB4 cells = assay: Cell cycle and apoptosis (sub-G1) analysis by FACS in NB4 cells; type: cell-based, human; details: 5 μM, 30 h
Protocol: as §3, §4, §5

CARM1 = assay: Western blot of H3R17me2 (CARM1 inhibition) in NB4 cells; type: cell-based, human; details: 5 μM, 30 h
Excerpt: In NB4 cells, the levels of acetyl-H3 (acH3) and acetyl-H4 (acH4) as well as those of acetyl-H3K9/14 (AcH3K9/14, see Supplementary material) and of the non-histone substrate acetyl-α-tubulin (Ac-Tubulin) were detected as an index of p300 inhibition (Figure 4). In the same cell line, the levels of H3K27me3, histone mark of the EZH2 catalytic activity (Figure 4), as well as the level of the EZH2 expression (see Supplementary material) have been determined. Last, the amount of H3R17me2, the functional read-out of CARM1 inhibition, was determined (Figure 4).
as §7

PRC2/EZH2, sequence (Q15022 whole entry): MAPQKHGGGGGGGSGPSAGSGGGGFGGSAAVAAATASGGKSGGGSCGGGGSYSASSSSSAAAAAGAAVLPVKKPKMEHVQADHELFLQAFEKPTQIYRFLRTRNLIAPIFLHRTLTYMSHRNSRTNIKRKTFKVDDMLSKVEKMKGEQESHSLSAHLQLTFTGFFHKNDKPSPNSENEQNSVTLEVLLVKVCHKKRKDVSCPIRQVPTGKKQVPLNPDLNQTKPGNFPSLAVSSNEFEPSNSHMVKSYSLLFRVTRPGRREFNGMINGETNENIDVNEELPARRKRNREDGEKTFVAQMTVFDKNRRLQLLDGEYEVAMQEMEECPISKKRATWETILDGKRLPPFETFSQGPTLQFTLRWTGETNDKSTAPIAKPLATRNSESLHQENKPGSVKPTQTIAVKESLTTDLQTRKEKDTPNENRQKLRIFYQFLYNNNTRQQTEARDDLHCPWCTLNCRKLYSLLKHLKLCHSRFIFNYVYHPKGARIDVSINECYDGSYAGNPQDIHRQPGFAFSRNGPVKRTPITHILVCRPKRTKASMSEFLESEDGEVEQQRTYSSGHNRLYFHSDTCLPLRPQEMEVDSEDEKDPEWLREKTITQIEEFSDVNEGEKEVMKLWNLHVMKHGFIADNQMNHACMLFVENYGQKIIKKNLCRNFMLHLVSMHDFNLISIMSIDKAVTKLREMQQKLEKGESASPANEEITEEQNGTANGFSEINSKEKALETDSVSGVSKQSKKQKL
PRC2/EZH2, sequence (Q09028 whole entry, further chain): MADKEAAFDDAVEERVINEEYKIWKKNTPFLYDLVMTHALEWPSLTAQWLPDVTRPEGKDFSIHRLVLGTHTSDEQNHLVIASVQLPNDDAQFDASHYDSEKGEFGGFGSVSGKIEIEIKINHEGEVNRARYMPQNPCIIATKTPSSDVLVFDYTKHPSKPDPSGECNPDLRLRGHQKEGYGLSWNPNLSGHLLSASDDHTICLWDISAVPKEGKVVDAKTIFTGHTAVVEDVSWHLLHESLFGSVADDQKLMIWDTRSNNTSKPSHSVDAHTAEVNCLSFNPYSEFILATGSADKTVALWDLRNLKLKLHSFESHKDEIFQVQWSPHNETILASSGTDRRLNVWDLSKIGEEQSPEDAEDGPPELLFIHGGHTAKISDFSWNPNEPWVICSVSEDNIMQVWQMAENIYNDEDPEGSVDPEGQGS
PRC2/EZH2, sequence (Q6ZN18 whole entry, further chain): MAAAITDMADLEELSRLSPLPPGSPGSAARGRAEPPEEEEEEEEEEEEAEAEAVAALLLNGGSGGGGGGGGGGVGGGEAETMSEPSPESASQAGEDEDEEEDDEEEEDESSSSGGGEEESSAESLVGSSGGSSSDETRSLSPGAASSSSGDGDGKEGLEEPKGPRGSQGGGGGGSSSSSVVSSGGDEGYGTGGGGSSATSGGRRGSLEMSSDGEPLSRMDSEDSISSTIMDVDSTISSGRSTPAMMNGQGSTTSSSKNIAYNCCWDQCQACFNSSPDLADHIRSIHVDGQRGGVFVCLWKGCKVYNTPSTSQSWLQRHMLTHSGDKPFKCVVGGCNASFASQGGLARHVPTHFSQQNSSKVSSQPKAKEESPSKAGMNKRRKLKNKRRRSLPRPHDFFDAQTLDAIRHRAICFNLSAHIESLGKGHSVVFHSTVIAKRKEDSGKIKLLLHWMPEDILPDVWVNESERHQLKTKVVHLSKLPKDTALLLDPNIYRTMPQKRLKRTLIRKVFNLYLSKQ
PRC2/EZH2, sequence (Q15910 whole entry): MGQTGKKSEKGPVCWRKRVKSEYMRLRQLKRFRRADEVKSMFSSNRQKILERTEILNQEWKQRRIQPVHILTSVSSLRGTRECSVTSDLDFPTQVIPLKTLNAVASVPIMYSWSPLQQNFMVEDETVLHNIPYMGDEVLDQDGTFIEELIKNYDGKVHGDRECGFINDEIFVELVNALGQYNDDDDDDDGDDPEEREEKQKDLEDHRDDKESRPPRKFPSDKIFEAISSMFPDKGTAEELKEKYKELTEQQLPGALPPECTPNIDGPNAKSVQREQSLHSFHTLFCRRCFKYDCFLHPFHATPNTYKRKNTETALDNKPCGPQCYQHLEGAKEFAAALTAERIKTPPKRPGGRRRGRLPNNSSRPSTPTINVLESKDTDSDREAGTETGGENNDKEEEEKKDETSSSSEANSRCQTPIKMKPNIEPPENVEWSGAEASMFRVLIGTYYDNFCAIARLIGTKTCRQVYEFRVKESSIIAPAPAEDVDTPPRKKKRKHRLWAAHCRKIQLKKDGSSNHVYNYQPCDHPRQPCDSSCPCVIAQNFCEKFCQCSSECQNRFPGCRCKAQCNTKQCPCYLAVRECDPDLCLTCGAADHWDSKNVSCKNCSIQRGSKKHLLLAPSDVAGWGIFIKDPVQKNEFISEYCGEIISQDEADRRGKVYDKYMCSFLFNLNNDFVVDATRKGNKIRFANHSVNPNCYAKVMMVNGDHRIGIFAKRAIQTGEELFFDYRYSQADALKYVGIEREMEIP
PRC2/EZH2, sequence (O75530 whole entry, further chain): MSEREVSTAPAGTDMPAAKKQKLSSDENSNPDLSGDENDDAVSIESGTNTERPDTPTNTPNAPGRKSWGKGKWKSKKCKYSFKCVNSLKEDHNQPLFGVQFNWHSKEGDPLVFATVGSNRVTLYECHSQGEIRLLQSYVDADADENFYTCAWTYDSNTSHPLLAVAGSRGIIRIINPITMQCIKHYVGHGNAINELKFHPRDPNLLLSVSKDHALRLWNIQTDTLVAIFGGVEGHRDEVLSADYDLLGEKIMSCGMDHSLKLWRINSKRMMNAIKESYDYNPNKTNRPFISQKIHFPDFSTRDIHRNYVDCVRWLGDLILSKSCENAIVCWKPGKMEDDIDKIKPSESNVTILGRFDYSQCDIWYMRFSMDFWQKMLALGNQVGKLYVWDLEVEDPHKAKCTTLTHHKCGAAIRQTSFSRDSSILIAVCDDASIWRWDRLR
T1 sequence (Q96EB6 whole entry): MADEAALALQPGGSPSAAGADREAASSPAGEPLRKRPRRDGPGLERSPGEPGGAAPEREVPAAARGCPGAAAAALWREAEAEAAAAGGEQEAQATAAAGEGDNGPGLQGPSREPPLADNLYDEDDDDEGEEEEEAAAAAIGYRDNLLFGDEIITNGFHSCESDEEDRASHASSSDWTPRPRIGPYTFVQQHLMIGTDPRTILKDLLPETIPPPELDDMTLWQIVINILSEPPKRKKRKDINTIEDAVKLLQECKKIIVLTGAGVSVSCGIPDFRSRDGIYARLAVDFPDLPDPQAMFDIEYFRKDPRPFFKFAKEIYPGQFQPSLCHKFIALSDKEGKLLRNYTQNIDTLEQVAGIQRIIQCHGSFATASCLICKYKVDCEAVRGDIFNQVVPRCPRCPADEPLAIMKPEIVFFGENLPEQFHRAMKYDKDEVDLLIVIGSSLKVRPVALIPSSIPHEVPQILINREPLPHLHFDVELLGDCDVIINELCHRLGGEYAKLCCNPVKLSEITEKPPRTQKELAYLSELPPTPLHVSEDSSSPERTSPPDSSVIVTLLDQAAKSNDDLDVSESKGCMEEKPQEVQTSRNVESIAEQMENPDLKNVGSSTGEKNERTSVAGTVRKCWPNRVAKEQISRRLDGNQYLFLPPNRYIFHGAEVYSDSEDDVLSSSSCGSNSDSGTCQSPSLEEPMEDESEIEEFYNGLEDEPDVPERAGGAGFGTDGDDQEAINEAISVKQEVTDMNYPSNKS
T2 sequence (Q8IXJ6 whole entry): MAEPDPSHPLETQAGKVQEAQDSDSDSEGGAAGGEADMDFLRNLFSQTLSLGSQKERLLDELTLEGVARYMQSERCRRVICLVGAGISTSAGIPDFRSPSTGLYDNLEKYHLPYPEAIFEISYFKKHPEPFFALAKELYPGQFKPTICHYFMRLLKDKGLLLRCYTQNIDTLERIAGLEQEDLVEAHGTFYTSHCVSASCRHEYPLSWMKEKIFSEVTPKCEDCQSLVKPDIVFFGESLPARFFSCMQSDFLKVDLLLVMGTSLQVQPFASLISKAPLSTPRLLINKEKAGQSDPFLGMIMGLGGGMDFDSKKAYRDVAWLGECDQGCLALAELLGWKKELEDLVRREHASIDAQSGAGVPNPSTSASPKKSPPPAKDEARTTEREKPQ

Row | SMILES | IC50 (SIRT1) [µM] | IC50 (SIRT2) [µM] | effect on cell cycle phases (U937 cells) | IC50 (PRC2/EZH2) [µM] | levels of acetyl-H4 (p300) | levels of H3K27me3 (EZH2) | effect on cell cycle phases (SH-SY5Y cells) | induction of apoptosis, % sub-G1 peaks (NB4 cells) [%] | induction of apoptosis, % sub-G1 peaks (SH-SY5Y cells) | levels of H3R17me2 (CARM1) | levels of acetyl-α-tubulin (p300)
1 | O=C1/C(=C/c2ccccc2Br)CN(CCCc2ccccc2)C/C1=C\c1ccccc1Br [Compound 4g, 3,5-Bis((E)-2-bromobenzylidene)-1-(3-phenylpropyl)piperidin-4-one] | > 200 | > 200 | arrested the cell cycle at the G1/S phase | – | – | – | – | – | – | – | –
2 | O=C1/C(=C/c2ccccc2Br)CN(C(=O)C=Cc2ccccc2)C/C1=C\c1ccccc1Br [Compound 4n, 3,5-Bis((E)-2-bromobenzylidene)-1-cinnamoylpiperidin-4-one] | > 200 | > 200 | arrested the cell cycle at the G1/S phase | 13.9 ± 1.8 | decrease of the acetylation levels | reduction of the H3K27me3 levels | – | – | – | – | –
3 | O=C1/C(=C/c2ccccc2Br)CN(CCCC(=O)c2ccccc2)C/C1=C\c1ccccc1Br [Compound 4j, 3,5-Bis((E)-2-bromobenzylidene)-1-(4-oxo-4-phenylbutyl)piperidin-4-one] | > 200 | > 200 | – | 68.5 ± 6.2 | decrease of the acetylation levels | reduction of the H3K27me3 levels | arrest in the G1/S phase | – | – | – | –
4 | O=C1/C(=C/c2ccccc2Br)CN(CC(=O)c2ccccc2)C/C1=C\c1ccccc1Br [Compound 4h, 3,5-Bis((E)-2-bromobenzylidene)-1-(2-oxo-2-phenylethyl)piperidin-4-one] | > 200 | > 200 | – | 46 ± 8.1 | – | reduction of the H3K27me3 levels | arrest in the G1/S phase | 30 to 40 | less than 20% | most effective | –
5 | O=C1/C(=C/c2ccccc2Br)CN(Cc2ccccc2)C/C1=C\c1ccccc1Br [Compound 4e, 1-benzyl-3,5-bis((E)-2-bromobenzylidene)piperidin-4-one] | > 200 | > 200 | – | 44.2 ± 0.2 | decrease of the acetylation levels | reduction of the H3K27me3 levels | – | 30 to 40 | – | – | –
6 | O=C1/C(=C/c2ccccc2Br)CN(C(=O)CCc2ccccc2)C/C1=C\c1ccccc1Br [Compound 4m, 3,5-Bis((E)-2-bromobenzylidene)-1-(3-phenylpropanoyl)piperidin-4-one] | > 200 | > 200 | block in G2/M phase | 11.3 ± 0.08 | – | reduction of the H3K27me3 levels | arrest in the G1/S phase | 56 | 17% | most effective | –
7 | O=C1/C(=C/c2ccccc2Br)CN(CCc2ccccc2)C/C1=C\c1ccccc1Br [Compound 4f, 3,5-Bis((E)-2-bromobenzylidene)-1-phenethylpiperidin-4-one] | > 200 | > 200 | block in G2/M phase | – | – | – | – | – | – | – | –
8 | O=C1/C(=C/c2ccccc2Br)CN(C(=O)c2ccccc2)C/C1=C\c1ccccc1Br [Compound 4k, 1-Benzoyl-3,5-bis((E)-2-bromobenzylidene)piperidin-4-one] | > 200 | > 200 | – | 40.7 ± 15.3 | – | – | – | 30 to 40 | – | – | decrease of the acetylation levels
9 | O=C1/C(=C/c2ccccc2Br)CN(C(=O)Cc2ccccc2)C/C1=C\c1ccccc1Br [Compound 4l, 3,5-Bis((E)-2-bromobenzylidene)-1-(2-phenylacetyl)piperidin-4-one] | > 200 | > 200 | block in G2/M phase | 15.2 ± 2.2 | decrease of the acetylation levels | – | arrest in the G1/S phase | 67 | – | most effective | –
